Data: ChEMBL document CHEMBL3301361, “Experimental in vitro DMPK and physicochemical data on a set of publicly disclosed compounds”

How the values were obtained:
physchem = conditions: octan-1-ol/water
in vitro = conditions: human, plasma

SMILES	logD (physchem; pH 7.4, LogD7.4)	fraction unbound at 5 h (in vitro; PPB)	logD (physchem; pH 7.4)	fraction unbound at 5 h (in vitro)
NC(=O)Nc1sc(-c2ccc(CN3CCCCC3)cc2)cc1C(N)=O	1.75	0.334		
CCOc1cc2ncc(C(N)=O)c(Nc3ccc(F)cc3F)c2cc1N1CCC(O)CC1	2.74	0.089		
CC(=O)Nc1ccc(-c2ccnc(Nc3ccc(N4CCOCC4)cc3)n2)cc1	2.91	0.0676		
CN1CCCC1CCNC(=O)c1ccc(Nc2ncc3cc(-c4ccncc4)ccc3n2)cc1 (centres undefined)	2.01	0.0081		
CC(C)N(CCC(C(N)=O)(c1ccccc1)c1ccccn1)C(C)C (centres undefined) [DISOPYRAMIDE]			-0.54	0.666
COc1cc(OC)c(S(=O)(=O)N(c2ccccc2)C(C)C)cc1NC(C)=O	1.6	0.005		
O=C1CN(C(=O)c2ccco2)C(c2ccccc2)c2cc(Cl)ccc2N1 (centres undefined)	3	0.101		
Cc1cn([C@H]2CCCN(S(=O)(=O)c3ccc(C(=O)O)c(Oc4cccc(Cl)c4)c3)C2)c(=O)[nH]c1=O	-1.28	0.04		
Cc1cn([C@H]2CCCN(S(=O)(=O)c3ccc(O)c(Oc4cccc(F)c4)c3)C2)c(=O)[nH]c1=O	1.6	0.0457		
CC(C)C[C@H](CO)Nc1nc(SCc2cccc(C#N)c2)nc2nc(N)sc12	3.9	0.0086		
Cc1cn([C@H]2CCCN(Cc3ccc(C(=O)O)c(Oc4cccc(Br)c4)c3)C2)c(=O)[nH]c1=O	-0.51	0.0191		
COc1ccc2c(c1)N(CCN1CCC(NCc3ccc4c(n3)NC(=O)CO4)CC1)C(=O)OC2	0.5	0.258		
Cc1cc(Nc2nc(O[C@H](C)c3ccc(F)cn3)c(C#N)nc2C)[nH]n1	2.72	0.0219		
CCS(=O)(=O)c1ccc2c(c1)N(CCN1CCC(NCc3ccc4c(n3)NC(=O)CO4)CC1)C(=O)CO2			-0.11	0.304
CN1CCN(c2cc3c(Nc4ccc(F)cc4F)c(C(N)=O)cnc3cc2F)CC1	2.63	0.244		
O=C1OC2(c3ccc(O)cc3Oc3cc(O)ccc32)c2ccccc21 [FLUORESCEIN]	0	0.19		
O=C(NO)C1COC(c2ccc(F)c(C(F)(F)F)c2)=N1 (centres undefined)	1.53	0.0836		
Cc1cc(Nc2nc(N[C@@H](C)c3ccc(F)cn3)cnc2C)[nH]n1	1.73	0.16		
N#Cc1ccc2c(c1)NC(=O)C2c1ncnc2cc(OCCCN3CCOCC3)ccc12 (centres undefined)	2.99	0.013		
Cc1ccc(S(=O)(=O)Nc2c(C(=O)N[C@@H](C)C(C)(C)C)c(C)nn2C2CCN(C)CC2)cc1	0.8	0.454		
Cc1nc(C(=O)[C@H](C)Oc2ccc(SCCCCCc3ccccc3)cc2)sc1CCCC(=O)O	2.03	0.007		
Nc1nc(Nc2ccc(S(N)(=O)=O)cc2)nn1C(=O)c1c(F)cccc1F [JNJ-7706621]	1.87	0.19		
Cc1ccc(-c2csc3ncnc(O)c23)cc1	2.59	0.0391		
CC(C)CCOc1ccc(N)cc1	2.67	0.0676		
CNc1c(Br)cnc2[nH]c(-c3ccc(S(C)(=O)=O)cc3)nc12	2.88	0.0477		
C[C@]12N[C@H](Cc3ccccc31)c1ccccc12 [DIZOCILPINE]			1.6	0.529

SMILES	logD (physchem; pH 7.4, LogD7.4)	fraction unbound at 5 h (in vitro; PPB)	logD (physchem; pH 7.4)	fraction unbound at 5 h (in vitro)
O=C(Cc1ccc(OCc2ccccc2)cc1)NO			1.92	0.0633
COc1cc2ncc(C(N)=O)c(Nc3ccc(F)cc3F)c2cc1N1CCN(C)CC1	2.18	0.253		
CCOc1ccccc1-c1ccc(-c2nc3ccncc3c(O)c2C#N)cc1	3	0.0007		
CCOC(=O)c1ncn2c1CN(C)C(=O)c1cc(F)ccc1-2 [FLUMAZENIL]			1.1	0.443
COC(=O)[C@H]1[C@@H](c2ccc(I)cc2)C[C@@H]2CC[C@H]1N2CCCF [IOFLUPANE]			2.3	0.201
NS(=O)(=O)c1ccc(CCNc2ccc3nnc(-c4ccccc4)n3n2)cc1	2.19	0.0321		
c1ccc2c(c1)CCN(c1ccncc1)C2	1.4	0.431		
C1CCC(C(CC2CCCCN2)C2CCCCC2)CC1 (centres undefined) [PERHEXILINE]	3.02	0.0156		
COc1ccc(CC(=O)Nc2nc3ccccc3[nH]2)cc1	2.9	0.0374		
CS(=O)(=O)c1ccc2c(c1)N(CCN1CCC(NCc3ccc4c(n3)NC(=O)CO4)CC1)C(=O)CO2			-0.51	0.145
Cc1ccc2c(c1)c(-c1ccnc3c(S(C)(=O)=O)cccc13)c(C)n2CC(=O)O	-0.34	0.0606		
NCCCCCc1c[nH]c2ccc(F)cc12			0.6	0.36
CC(C)Nc1nc(NCc2ccccc2)c2sccc2n1			3.9	0.0029
COc1cc2nc(N3CCN(C(=O)C4CCCO4)CC3)nc(N)c2cc1OC (centres undefined) [TERAZOSIN]	0.9	0.204		
COc1ccc(-c2nc3c(NCCCNC(=O)C4(CN)CC4)c(Br)cnc3[nH]2)cc1	1.9	0.0293		
N#Cc1cnn2c(N)cc(-c3ccccc3)nc12	2.48	0.0499		
COc1cc(Nc2cc(N3CCOCC3)nc(N[C@@H](C)c3ncc(F)cn3)n2)n[nH]1	2.18	0.276		
C[C@H](CO)Nc1nc(SCc2cccc(F)c2F)nc2[nH]c(N)nc12	3.22	0.0229		
CN1CCN(c2ccc3ncc(C(N)=O)c(Nc4ccc(F)cc4F)c3c2)CC1	2.3	0.258		
Cc1cc(Nc2nc(O[C@@H](C)c3ccc(F)cn3)c(C#N)nc2C)[nH]n1	2.86	0.0594		
C[C@H](Nc1nc(Nc2ncc(C#N)s2)cc(N2CCOCC2)n1)c1ccc(F)cn1	3.45	0.0594		
CC(=O)Nc1ccc2ccn(-c3cc(NCCCN4CCCC4)n4ncc(C#N)c4n3)c2c1	1.87	0.0676		
Cc1ncc(-c2nc(Nc3ccc(C(=O)N4CC[C@H](N(C)C)C4)cc3)ncc2F)n1C(C)C	2.16	0.258		
Cc1cn([C@H]2CCCN(S(=O)(=O)c3ccc(O)c(Oc4ccccc4)c3)C2)c(=O)[nH]c1=O	1.49	0.062		
Oc1ncc(NCc2ccccc2)c(O)n1			0.82	0.635
CC(=O)N[C@H](C)c1ccc(Nc2ncc3cc(-c4ccncc4)c(C)cc3n2)cc1	3.45	0.0191		

SMILES	logD (physchem; pH 7.4, LogD7.4)	fraction unbound at 5 h (in vitro; PPB)	logD (physchem; pH 7.4)	fraction unbound at 5 h (in vitro)
CN[C@@H](C)C(=O)N[C@H](C(=O)N[C@H]1CCCCN(Cc2ccccc2)C1)C1CCCCC1	2.12	0.197		
O=C(CSc1nccn(-c2ccc(F)c(F)c2)c1=O)NC1CCCC1	2	0.28		
C[C@H](CO)Nc1nc(SCc2ccccc2)nc2nc(N)sc12	3.12	0.0457		
CC(C(=O)O)c1ccc2oc(-c3ccc(Cl)cc3)nc2c1 (centres undefined) [BENOXAPROFEN]	1.3	0.0024		
COc1ccnc(CCc2nc3cc(Br)cnc3[nH]2)c1	2.92	0.0409		
CN[C@@H](C)C(=O)N[C@H](C(=O)N[C@H]1CCN(C(=O)c2ccccc2)C1)C1CCCCC1	0.82	0.661		
O=C1COc2ccc(CNC3CCN(CCN4C(=O)COc5ccc(F)cc54)CC3)nc2N1			0.9	0.17
Clc1ccc(C(c2ccccc2)N2CCNCC2)cc1 (centres undefined) [NORCHLORCYCLIZINE]	1.94	0.0581		
CCN(CC)CCNC(=O)c1c(C)[nH]c(/C=C2\C(=O)Nc3ccc(Cl)cc32)c1C [SU-11652]	2.75	0.105		
COc1cnc(-c2ccccn2)nc1NC(C)C	2.01	0.224		
O=c1[nH]c([C@@H]2CCCN2)nc2c1oc1ccc(Br)cc12	2.19	0.051		
Nc1ccc(OCCc2ccccc2)cc1	2.71	0.0343		
C[C@H](Nc1nc(Nc2ncc(C#N)s2)cc(N2CCOCC2)n1)c1ncc(F)cn1	2.26	0.117		
CN[C@@H](C)C(=O)N[C@H](C(=O)N[C@H]1CCCN(CCc2ccc(F)cc2)C1)C1CCCCC1	2.39	0.266		
Cc1[nH]c(/C=C2\C(=O)Nc3ccc(F)cc32)c(C)c1C(=O)NCCN(C)C	1.75	0.173		
CC(=O)Nc1ccc2ccn(-c3cc(NCCCN(C)C)n4ncc(C#N)c4n3)c2c1	1.62	0.101		
Cc1cc(Nc2nc(N[C@@H](C)c3ccc(F)cn3)c(C#N)cc2F)n[nH]1	3.11	0.0532		
CNc1nc2ccccc2n1Cc1sc2c(c1C(=O)N1CC[C@@H](O)C1)c(=O)n(C)c(=O)n2CC(C)C	1.61	0.319		
O=C(c1cccc(Cc2n[nH]c(=O)c3ccccc23)c1)N1CCOCC1	1	0.415		
CNc1c(Br)cnc2nc(-c3ccc(OCCN4CCN(C)CC4)cc3)[nH]c12	2.91	0.0383		
COc1cc(OC)c2nc(C)c3c(c2c1)N(c1ccc(O)cc1)CC3	1.5	0.112		
COc1ccc([C@]2(O)CC[C@H](N3CC[C@@H](NC(=O)CNC(=O)c4cccc(C(F)(F)F)c4)C3)CC2)cn1	1.72	0.212		
COc1cc(Nc2nc(N[C@@H](C)c3ncc(F)cn3)nc(N3CCOCC3)c2F)[nH]n1	2.64	0.253		
COc1ccc2c(c1)N(CCN1CCC(NCc3ccc4c(n3)NC(=O)CO4)CC1)C(=O)CO2			0.87	0.112
CC(C)[C@H]1C(=O)N[C@H](CO)Cc2ccccc2N1C			2.03	0.371
